“Also recorded” adds a separate entry of the source.
Experiments:
patients with PD [1] = assay: Circadian rhythm of wrist skin temperature; format: in vivo, human; conditions: 12 evaluable patients; for markers of circadian function (IS, RA, CFI, IV) of wrist skin temperature: fixed dose versus baseline
Method: (6) I-Button Temperature Assessment. The I-Button is a small, rugged self-sufficient system that measures temperature and records the results in a protected memory section. The Thermochron I-Button DS1921H (Maxim Integrated, Dallas, Tex.) was used for skin temperature measurement. I-Buttons were programmed to sample every 10 mins., and attached to a double-sided cotton sport wrist band using Velcro, with the sensor face of the I-Button placed over the inside of the wrist, on the radial artery of the dominant hand. Subjects removed and replaced the data logger when necessary (i.e., to have a bath or shower). The value of skin temperature assessment in sleep research is that the endogenous skin warming resulting from increased skin blood flow is functionally linked to sleep propensity. From the collected data, the mesor, amplitude, acrophase (time of peak temperature), Rayleight test (an index of interdaily stability), mean waveforms are calculated.);
Assessments were made at baseline and at the end of the fixed dose and washout periods. Circadian system status was evaluated by continuously monitoring wrist skin temperature (Thermochron iButton DS1921H; Maxim, Dallas) following published procedures (Sarabia et al. 2008).
Circadian rhythm of skin temperature was evaluable in 12 patients (i.e., those who had recordings that extended from baseline through washout). Circadian system functionality was evaluated by continuously monitoring wrist skin temperature using a temperature sensor (Thermochron iButton DS1921H; Maxim, Dallas, Tex.) (Sarabia et al. 2008). […]
Briefly, this analysis includes the following parameters: (i) the inter-daily stability (the constancy of 24-hour rhythmic pattern over days, IS); (ii) intra-daily variability (rhythm fragmentation, IV); (iii) average of 10-minute intervals for the 10 hours with the minimum temperature (L10); (iv) average of 10-minute intervals for the 5 hours with the maximum temperature (M5) and the relative amplitude (RA), which was determined by the difference between M5 and L10, divided by the sum of both. […]

patients with PD [2] = assay: Sleep diary: total sleep time and REM-behavior disorder; format: in vivo, human
Method: FIG. 3 is a chart of total sleep time in relation to squalamine dose. Total sleep time was obtained from the sleep diary by subtracting awake time during the night from total time spent in bed. Total sleep time per night was logged for each patient at baseline, each dosing period and at washout, and the means were determined. The light grey bar represents the baseline value for each cohort at a given dose level and the dark grey bar represents the value for the same cohort at the stated dose of squalamine (ENT-01; Kenterin™). The number of patients represented at each value are: Baseline, 33; 75 mg, 21; 100 mg, 28; 125 mg, 18; 150 mg, 15; 175 mg, 12; 200 mg, 7; 225 mg, 3; 250 mg, 2; washout, 33. P values were as follows: 75 mg, p=0.4; 100 mg, p=0.1; 125 mg, p=0.3; 150 mg, p=0.07; 175 mg, p=0.03; 200 mg, p=0.3; 225 mg, p=0.5; 250 mg, p=0.3; wash-out, p=0.04 (paired t test).
(5) Sleep Diary (participants completed a sleep diary on a daily basis throughout the study. The diaries included time into bed and estimated time to sleep as well as wake time and duration during the night.); […]

αS = αS (Homo sapiens, UniProt P37840); conditions: in vitro; cited from earlier work
[3] = tested on: patients with PD and constipation; assay: Phase 2 trial Stage 2: bowel function / stool related indices on daily oral dosing; format: in vivo, human; conditions: for CSBM/week in the randomized cohort, Treatment (n = 6): baseline 0.8
Method: Following successful screening, all subjects underwent a 14-day run-in period where the degree of constipation was assessed through a validated daily log (Zinsmeister et al. 2013) establishing baseline CSBMs/week. Subjects with an average of <3 CSBMs/week proceeded to dosing.
In Stage 2, 34 patients were evaluated.
The primary efficacy outcome variable was whether or not a subject was a “success” or “failure”. This is an endpoint based on subject diary entries for the “fixed dose” period prior to the endpoint assessment defined as average complete stool frequency increase by 1 or more over baseline, or 3 or more complete spontaneous stools/week. The subject was deemed a “success” if s/he met one or more of the criteria listed above, otherwise the subject was deemed a “failure”. The primary analysis was based on all subjects with a baseline assessment and an assessment at the end of the “fixed-dose” period and was a comparison of the proportion of successes with 0.10 (the null hypothesis corresponding to no treatment effect).

[4] = parameters: species or system rats; conditions: rat, in vivo, po

## CC(C)[C@@H](CC[C@@H](C)[C@H]1CC[C@H]2[C@@H]3[C@H](O)C[C@H]4C[C@@H](NCCCNCCCCN)CC[C@]4(C)[C@H]3CC[C@]12C)OS(=O)(=O)O (single isomer, unassigned) [squalamine (ENT-01), squalamine]
Patients with PD [1]
  markers of circadian function (IS, RA, CFI, IV) of wrist skin temperature: improved all markers of healthy circadian function
Patients with PD [1]; listed as ENT-01
  markers of circadian function (IS, RA, CFI, IV) of wrist skin temperature: significant positive impact; also recorded: improved all markers of healthy circadian function
Patients with PD [1]; wash-out versus baseline (IS, CFI)
  circadian parameters during wash-out period: improvement persisted for several of these circadian parameters
Patients with PD [2]; dose escalation, Stage 2
  RBD and total sleep time: improved progressively in a dose-dependent manner
Patients with PD [2]; doses beyond 125 mg
  total sleep time versus baseline by dose: consistently higher than baseline beyond 125 mg
αS
  displacement of αS from membranes: can displace αS from membranes in vitro
[3]; Fixed dose period (on drug, before randomization), baseline 1.6
  CSBM/week in the randomized cohort, group later randomized to Placebo (n = 9): 3.3 CSBM/week
[3]; Fixed dose period
  CSBM/week in the randomized cohort, Treatment (n = 6): 3.2 CSBM/week
[3]; Randomized period (4-6 days continued treatment)
  CSBM/week in the randomized cohort, Treatment (n = 6): 2.4 CSBM/week
[3]; Washout
  CSBM/week in the randomized cohort, Treatment (n = 6): 0.9 CSBM/week
[4]
  absorption from the intestine: low

Source: patent US20200038416A1, “METHODS OF TREATING CARDIAC CONDUCTION DEFECTS USING AMINOSTEROL COMPOSITIONS” (Enterin, Inc., priority 2018, published 2020)
